# Test results as given in US5286729A, “Angiotensin II receptor blocking 2,3,6 substituted quinazolinones” (American Cyanamid Company, priority 1993, dated 1994).
# Target: T1, Angiotensin II Receptor (Bos taurus, UniProt P25104)
# T1 construct: The brownish tissue forming the adrenal cortex is scraped off and finely minced with scissors before homogenization; from tissue; host or cells: beef adrenal cortex, microsomal (100,000 x g) membranes; adrenals from a local slaughter house (Maxwell-Cohen)
# T1 sequence (P25104 1-359): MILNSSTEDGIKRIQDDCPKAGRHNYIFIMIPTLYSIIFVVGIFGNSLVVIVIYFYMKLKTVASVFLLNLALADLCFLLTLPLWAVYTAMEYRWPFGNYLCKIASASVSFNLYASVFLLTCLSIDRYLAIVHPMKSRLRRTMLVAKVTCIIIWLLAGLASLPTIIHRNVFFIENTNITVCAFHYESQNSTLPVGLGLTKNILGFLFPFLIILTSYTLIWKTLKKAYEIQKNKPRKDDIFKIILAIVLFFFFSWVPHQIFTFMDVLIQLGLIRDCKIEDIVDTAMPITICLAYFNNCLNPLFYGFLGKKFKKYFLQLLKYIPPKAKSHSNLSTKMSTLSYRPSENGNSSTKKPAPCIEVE
# Experiment: Receptor Binding Assay, binding of [125I](Sar1,Ile8)AngII to beef adrenal cortex membranes
# Details: radioligand; non-specific binding with 1.0 uM unlabeled (Sar1,Ile8)AngII
# From the text: Beef adrenals are obtained from a local slaughter house (Maxwell-Cohen). [^125 I](Sar^1,Ile^8)AngII, S.A. 2200 Ci/mmole, is purchased from Dupont (NEN®, Boston, Mass.).
# Approximately sixteen (16) to twenty (20) beef adrenal glands are processed as follows: fresh adrenal glands received on crushed ice are cleaned of fatty tissues and the tough membranes encapsulating the glands are removed and discarded. The brownish tissue forming the adrenal cortex is scraped off and finely minced with scissors before homogenization. Care is taken to avoid contamination with medullary tissue during dissection. The scraped cortices are suspended in twenty volumes of an ice-cold buffer medium consisting of 10 mM Tris.HCl (pH 7.4 at 22° C.) and containing 1.0 mM EDTA and 0.2M sucrose. Unless otherwise indicated, all subsequent operations are done at 4° C. […] The homogenate is centrifuged first at low speed (3,000×g) for 10 min. […] The pelleted membrane is reconstituted in 50.0 mM Tris.HCl buffer containing 0.1 mM of phenylmethylsulfonyl fluoride (PMSF) to give approximately a protein concentration of 2.5 mg per ml of tissue suspension. The membrane preparation is finally aliquoted in 1.0 ml volumes and stored at -70° C. until use in the binding assays. […]
substance,measurement,value
"[^125 I](Sar^1, Ile^8) AngII [reference compound]",Specific binding,greater than 90%
